{"source": "patent US20110212100A1", "about": "“METHODS FOR MODULATING DEVELOPMENT AND EXPANSION OF IL-17 EXPRESSING CELLS” (priority 2007, published 2011)", "type_in_all_cases": "cell-based, mouse", "key": {"CD4+ CD25− T cells": {"system": "CD4+ CD25− T cells", "test": "CD4+ T cell proliferation, CD25 upregulation, cytokine production and Th1/Th2/iTreg differentiation", "conditions": "titrating concentrations of tunicamycin", "experimental": "(§1) The dose-response of HF on CD4+ T cell proliferation, activation (i.e. CD25 upregulation) and differentiation to Th1, Th2 and Th17 lineages were evaluated. Purified murine naïve CD4+ CD25− T cells were activated using anti-CD3 (0.3 μg/ml) and anti-CD28 (0.5 μg/ml) antibodies and varying amounts of HF was added to each T cell culture condition (1.25 nM-40 nM). CD4+ T cell proliferation was monitored by CFSE dilution on day 3-post activation and CD25 expression was evaluated by FACS staining 2 days after activation. For T cell differentiation experiments, naïve T cells were activated as above in the presence of Th1 (IL-12 (20 ng/ml) plus anti-IL-4 (10 μg/ml)), Th2 (IL-4 (50 ng/ml) plus anti-IFNγ (0.5 mg/ml)) or Th17 (TGFβ (3 ng/ml) plus IL-6 (30 ng/ml)) polarizing conditions plus titrating amounts of HF (1.25 nM-40 nM) or MAZ1310 (40 nM). The percentage of Th17 cells, (IL-17^+ IFNγ^−) was evaluated on day 3 following activation, whereas the abundance of Th1 cells (IFNγ^+ IL-4) and Th2 cells (IL-4^+ IFNγ^−) was determined 5 days following activation. All cytokine expression was determined by intracellular staining following PMA+Ionomycin+Brefeldin A re-stimulation and all data was normalized to control (MAZ1310)-treated cells. […] Biol., vol. 80:1-8 (2006).\n(§2) Cytokines, antibodies and T cell culture: Purified CD4^+ CD25^− T cells were activated in vitro as previously described (I. M. Djuretic et al., Nat Immunol 8, 145 (2007)) using 0.3 μg/ml hamster anti-mouse CD3 (clone 145-2C11) (ATCC—Manassas, Va.) and 0.5 μg/ml hamster anti-mouse CD28 (BD Pharmingen, San Jose, Calif.). Activated cell cultures were differentiated using the following combinations of cytokines and antibodies: iTreg=recombinant human TGFβ1 (3 ng/ml; R&D systems, Minneapolis, Minn.), Th17βTGFβ1 (3 ng/ml) plus recombinant mouse IL-6 (30 ng/ml, R&D systems). Th1 and Th2 differentiation was performed as previously described. (I. M. Djuretic et al., Nat Immunol 8, 145 (2007)). Human IL-2 supernatant (National Cancer Institute) was used in culture at 0.01 U/ml and was added at 48 hours-post activation when T cells were split into tissue culture wells lacking CD3 and CD28 antibodies, with the exception of Th17 cultures that were maintained in the absence of IL-2. All reagents were added at the time of T cell activation and again at 48-hours post activation unless indicated otherwise. For some experiments, purified CD4^+ CD25^− T cells, CD8^+ T cells or B cells were labeled with 1 μM CFSE (Invitrogen) prior to activation in accordance with manufacturers instructions.\nDetection of cytokine production: Cytokines secreted into media supernatant were measured using the mouse Th1/Th2 cytometric bead array (CBA, BD Pharmingen) in accordance with manufacturers instructions. […]"}, "[1]": {"system": "Th17 differentiation of CD4+ CD25− T cells", "test": "Th17 differentiation (IL-17+ IFNγ− cells) of T cells activated with TGFβ plus IL-6", "experimental": "Low doses of halofuginone (HF) were tested to determine the ability of HF to enhance Treg differentiation, while suppressing Th17 differentiation. Nave. CD4+ T cells (CD4+ CD25−) were isolated from the spleen and peripheral lymph nodes of C57B/6 mice. T cells were then activated using anti-CD3 (0.3 μg/ml) and anti-CD28 (0.5 μg/ml) antibodies either in media alone (row 1, 4), TGFβ alone (3 ng/ml—row 2, 5) or TGFβ (3 ng/ml) plus IL-6 (30 ng/ml) (row 3, 6). […] T cells were cultured for 3 days and CD25 and Foxp3 expression (Treg marker genes) was determine by FACS staining and flow cytometric analyses. Simultaneously, T cells were harvested and re-stimulated for 4 hours using phorbol myristic acetate (PMA; 10 nM), Ionomycin (1 μM) and cytokine secretion was prevented using brefeldin A (20 μg/ml). Following stimulation, the production of IL-17 and IFNγ were determined by intracellular staining and analyzed via flow cytometry.\nas §1, §2\nDetection of cytokine production: Cytokines secreted into media supernatant were measured using the mouse Th1/Th2 cytometric bead array (CBA, BD Pharmingen) in accordance with manufacturers instructions."}, "[2]": {"system": "TGFβ-induced Smad phosphorylation", "test": "TGFβ signaling in T and B cells (Smad phosphorylation, lymphocyte responses to TGFβ)", "conditions": "HF 2.5-40 nM or 10 nM; SB-431542 10 μM", "experimental": "T cells were then activated in the presence or absence of 3 ng/ml. TGFβ. Whole cell extracts were prepared after 1 hour of stimulation and western blot analyses were performed using the indicated antibodies.\nWestern blotting: Whole cell lysates were generated from T cells activated for the indicated times. For STAT3 and Smad2/3 western blots cells were harvested, washed in PBS and lysed in 50 mM Tris, pH 7.4, 0.1% SDS, 1% Triton-X100, 140 mM NaCl, 1 mM EDTA, 1 mM EGTA supplemented with protease inhibitors tablets (Roche-Germany), 1 mM NaF and 1 mM Na3VO4. For eIF2α and ATF4 western blots, cells were harvested as above and lysed in 50 mM Tris, pH 7.4, 2% SDS, 20% glycerol and 2 mM EDTA supplemented with protease and phosphatase inhibitors as above. All lysates were cleared via centrifugation and 15-30 μg of protein was resolved by SDS-PAGE. Protein was transferred to nitrocellulose membranes, blocked and blotted using specific antibodies. Antibodies used for western blot analysis were anti-phospho-Smad2, anti-STAT3 (pY705), anti-STAT3, anti-eIF2α^pS51, anti-eIF2α, anti-GCN2^pT898, anti-GCN2 (all from cell signaling technology, Danvers, Mass.). Anti-ATF4/CREB2 and anti-β-actin were purchased from Santa Cruz biotechnology (Santa Cruz, Calif.). […]"}}, "data": [{"compound": "tunicamycin", "values": [{"measurement": "effect of tunicamycin on Th1 and Th2 differentiation, in words", "setting": "CD4+ CD25− T cells", "result": "preferentially impaired Th1 and Th2 differentiation"}, {"measurement": "effect of tunicamycin on IL-17 expression in T cells, in words", "setting": "[1]; titrating concentrations of tunicamycin", "result": "little influence on IL-17 expression"}]}, {"compound": "N[C@H](CO)Cc1c[nH]c2ccccc12", "note": "[L-tryptophanol]", "values": [{"measurement": "effect of L-tryptophanol on IL-17 production, in words", "setting": "[1]; 0.2 mM in complete medium, TGFβ plus IL-6", "result": "impaired IL-17 production"}]}, {"compound": "CC(C)(C)OC(=O)N1CCC[C@H](O)[C@H]1CC(=O)Cn1cnc2cc(Br)c(Cl)cc2c1=O", "note": "[MAZ1310]", "values": [{"measurement": "activity of the HF derivative used as negative control, in words", "setting": "[1]; used at equal concentrations as HF", "result": "inactive"}]}, {"compound": "NC(=O)c1ccc(-c2nc(-c3ccc4c(c3)OCO4)c(-c3ccccn3)[nH]2)cc1", "note": "[SB-431542]", "values": [{"measurement": "effect on TGFβ-induced Smad phosphorylation and other lymphocyte responses to TGFβ, in words", "setting": "[2]", "result": "abrogated all responses to TGFβ"}]}]}
